The source of these data is publication PMC11369887 (RSC Advances, 2024).

In general, IC50 refers to the midpoint of a concentration-inhibition curve. Lower therefore signals greater potency in that assay.

Data set [1] relates to human liver cancer (Hep3B) cell line.
Protocol: (§1) The newly synthesized compounds were evaluated for their in vitro growth inhibition of three human tumor cell lines representing different tumor types, namely, breast adenocarcinoma (MCF-7), liver hepatocellular carcinoma (Hep3B) and leukemia-SR. […] The breast tumor cell line (MCF-7), hepatic tumor cell line (Hep3B) and leukemia-SR cell line were obtained from American Type Culture Collection. The cells were cultured using Dulbecco's modified Eagle's medium (DMEM) (Invitrogen/Life Technologies) supplemented with 10% fetal bovine serum (FBS) (Hyclone), 10 μg mL^−1 of insulin (Sigma), and 1% penicillin–streptomycin. […] For 24 hours before to the MTT experiment, plate cells (densities of 1.2–1.8 × 10 000 cells per well) were layered in a 96-well plate containing 100 μL of the tested chemical per well and 100 μL of full growth media.
(§2) The culture medium was transferred to a centrifuge tube. […] Then 2.0 to 3.0 mL of Trypsin EDTA solution was added to the flask, and the cells were observed using an inverted microscope until the cell layer became dispersed (usually within 5–15 min). After that, 6.0 to 8.0 mL of complete growth medium was added and the cells were aspirated by gently pipetting. The cell suspension was transferred to the centrifuge tube with the medium and cells from step 1 and centrifuged at approximately 125 g for 5–10 min. The supernatant was discarded. The cell pellet was re-suspended in a fresh growth medium. Appropriate aliquots of the cell suspension were added to new culture vessels.
(§3) For the best results, the cells in the log phase of growth should be employed and the final cell number should not exceed 10^6 cells per cm^2. Each test should include a blank containing a complete medium without cells. Cultures from the incubator were transferred into a laminar flow hood or other sterile work area. […] Reconstituted MTT was added in an amount equal to 10% of the culture medium volume. Cultures were returned to the incubator for 2–4 h depending on the cell type and maximum cell density. An incubation period of 2 h is generally adequate but may be lengthened for low cell densities or cells with lower metabolic activity. The incubation times should be consistent when making comparisons. […] Occasionally, especially in dense cultures, pipetting up and down may be required to completely dissolve the MTT formazan crystals. The absorbance was spectrophotometrically measured at a wavelength of 570 nm. The background absorbance of multiwell plates was measured at 690 nm and subtracted from the 450 nm measurement. Tests performed in multiwell plates might be read using an appropriate type of plate reader or the contents of individual wells might be transferred to appropriate size cuvettes for spectrophotometric measurement.
Data set [2] relates to leukemia (L-SR) cell line.
Protocol: as §1, §2, §3
In data set [3] the test system is human breast cancer (MCF-7) cell line.
Protocol: as §1, §2, §3

For the substance “9-Fluoro-3-methyl-6-((3-methyl-5-oxo-4,5-dihydro-1H-pyrazol-1-yl)carbonyl)-10-(4-methylpiperazin-1-yl)-2,3-dihydro-7H-[1,4]oxazino[2,3,4-ij]quinolin-7-one [Compound 6]”, the IC50 was 13.1 ± 0.61 µM in data set [1], 28.9 ± 1.75 µM in data set [2] and 40.6 ± 1.88 µM in data set [3].
